Data on twelve compounds can be found in ChEMBL document CHEMBL1201862, “PubChem BioAssay data set” (2004).

Assay [1] can be described thus: HEK-293T viability loss after treatment – luminescence, T-cell screen hits, cytotoxicity control for TCR NF-kB inhibitor project, dose response (AID 489026).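 Further: cells exposed to compound about 14 hours before the viability readout.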 It is filed as functional, cell-based.
Assay [2] addresses T1, Estrogen receptor (Homo sapiens, UniProt P03372).
T1 sequence (P03372 whole entry): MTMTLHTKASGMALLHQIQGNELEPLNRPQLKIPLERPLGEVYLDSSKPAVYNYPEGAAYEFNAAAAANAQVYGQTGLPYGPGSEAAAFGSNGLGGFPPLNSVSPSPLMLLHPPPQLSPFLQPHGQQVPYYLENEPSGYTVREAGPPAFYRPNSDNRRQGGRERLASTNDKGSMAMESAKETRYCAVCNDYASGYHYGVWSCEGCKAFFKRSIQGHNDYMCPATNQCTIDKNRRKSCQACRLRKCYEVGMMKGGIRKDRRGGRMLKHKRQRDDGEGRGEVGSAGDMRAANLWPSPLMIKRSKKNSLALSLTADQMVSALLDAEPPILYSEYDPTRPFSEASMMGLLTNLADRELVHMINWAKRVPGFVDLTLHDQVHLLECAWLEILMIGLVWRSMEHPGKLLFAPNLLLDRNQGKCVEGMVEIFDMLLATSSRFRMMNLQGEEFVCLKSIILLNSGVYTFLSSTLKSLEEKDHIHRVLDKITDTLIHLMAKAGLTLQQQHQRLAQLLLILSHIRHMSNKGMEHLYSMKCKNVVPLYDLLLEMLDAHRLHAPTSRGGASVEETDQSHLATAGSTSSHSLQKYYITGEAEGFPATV

For assay [3], the target named is Mu-type opioid receptor (Homo sapiens, UniProt P35372). It is filed as functional, cell-based.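 Further: U2OS cells with beta-arrestin recruitment to OPRM1 by beta-gal complementation.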
In assay [4] the target is 5-hydroxytryptamine receptor 2A (Mus musculus, UniProt P35363). It is filed as functional, cell-based.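 Further: CHO-K1 cells with tagged receptor and beta-arrestin; agonist potency measured as compound-induced activation of the receptor.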
Assay [5] concerns the target T2, Carboxy-terminal domain RNA polymerase II polypeptide A small phosphatase 1 (Homo sapiens, UniProt Q9GZU7).
T2 sequence (Q9GZU7 whole entry): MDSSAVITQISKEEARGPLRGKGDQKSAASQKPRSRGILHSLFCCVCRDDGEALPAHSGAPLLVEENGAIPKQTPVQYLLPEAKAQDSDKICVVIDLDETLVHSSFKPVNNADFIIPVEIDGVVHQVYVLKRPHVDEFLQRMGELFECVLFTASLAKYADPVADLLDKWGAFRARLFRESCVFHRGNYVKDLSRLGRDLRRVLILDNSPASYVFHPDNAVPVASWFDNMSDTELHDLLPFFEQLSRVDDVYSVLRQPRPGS
The experiment in a line: CTDSP1 inhibitors, concentration-response, biochemical, absorbance readout, ultra-high-throughput screen actives (AID 540297). The format is functional.

Assay [6] deals with T3, Microphthalmia-associated transcription factor (Homo sapiens, UniProt O75030).
T3 sequence (O75030 whole entry): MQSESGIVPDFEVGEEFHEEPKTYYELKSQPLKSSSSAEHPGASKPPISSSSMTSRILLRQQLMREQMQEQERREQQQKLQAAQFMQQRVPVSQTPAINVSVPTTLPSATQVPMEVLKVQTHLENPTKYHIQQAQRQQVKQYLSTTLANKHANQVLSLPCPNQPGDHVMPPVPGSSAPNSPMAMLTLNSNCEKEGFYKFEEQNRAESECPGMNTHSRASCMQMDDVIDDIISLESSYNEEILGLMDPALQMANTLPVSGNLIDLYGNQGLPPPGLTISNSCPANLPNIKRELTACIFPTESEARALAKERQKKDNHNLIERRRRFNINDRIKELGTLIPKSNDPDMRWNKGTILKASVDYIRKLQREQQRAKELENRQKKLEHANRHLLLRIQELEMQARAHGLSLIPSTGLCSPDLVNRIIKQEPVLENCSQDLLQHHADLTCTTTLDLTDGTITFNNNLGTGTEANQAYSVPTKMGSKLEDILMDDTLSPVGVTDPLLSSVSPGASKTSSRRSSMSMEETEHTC
The experiment in a line: reducers of TRPM1 reporter luminescence, concentration series – cell-based, SK-MEL-5, cherry-picked, set 3, MITF inhibitor project, dose response (AID 493073).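 Further: SK-MEL-5 melanoma cells with luciferase driven by the MITF target TRPM1 promoter.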 The format is functional.

Assay [7] deals with Nonstructural protein 1 (Influenza A virus, UniProt Q194T2). The format is functional, Influenza A virus (A/California/07/2009(H1N1)).
A short description of assay [8]: non-specific 3'UTR reporter inhibition in Clone20-Shn3RL – cell-based, Renilla luciferase, cherry-picked, counter-screen for Shn3 inhibitor project, dose response (AID 624133). It is filed as functional. (The purpose of a counterscreen is to sort out artefacts and off-target activity.)
A short description of assay [9]: loss of viability in HepG2 cells – cell-based, CellTiter-Glo, cherry-picked, cytotoxicity control for Shn3 inhibitor project, dose response (AID 624134). It is filed as functional. In general terms: Cellular ATP, detected with luciferase, serves as a proxy for viable cell number.
The test system of assay [10] is INS1. The experiment in a line: INS-1E survival protection against cytokine death – cell-based, luminescence, retest, dose response (AID 449756).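 Further: cell death triggered by IL-1 beta plus TNF-alpha plus IFN-gamma mixture; protective hits raise ATP signal compared with cytokine alone wells.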 It is filed as functional. The conditions noted are these: Rattus norvegicus.
Assay [11] is described as follows: reduction of Shn3 3'UTR-driven luciferase in osteoblasts – cell-based, Clone20 osteoblasts, firefly luciferase, cherry-picked, dose response (AID 624132).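 Further: firefly luciferase luminescence from reporter carrying the Shn3 3'UTR in osteoblasts.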 It is filed as functional.
Assay [12] is described as follows: alpha-synuclein stem-loop luciferase translation blockers – H4 neuroglioma cells, luminescence, confirmation (AID 1988). The format is functional, cell-based.
Assay [13] is described as follows: Luminescence Cell-Based Dose Response HTS to Identify Inhibitors of 5'UTR Stem-Loop Driven Prion Protein mRNA Translation in H4 Neuroglioblastoma Cells. [Related pubchem assays: 1827 (Project Summary), 1813 (Primary HTS)]. The format is functional.
Assay [14] can be described thus: luciferase reporter signal suppression in cells – H4 neuroglioma cells, luminescence, dose response (AID 1990). It is filed as functional, cell-based. In general terms: In a reporter assay the amount or activity of a reporter protein is the signal.
Assay [15] is described as follows: blockers of bursicon-stimulated LGR2 cAMP reporter – cell-based, HEK293, CRE-luciferase reporter, cherry pick, set 2, dose response (AID 743343).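 Further: transfected cells were stimulated with diluted bursicon conditioned medium after compound addition.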 It is filed as functional.
A short description of assay [16]: blockade of melanocortin 4 receptor signaling – cell-based, plate reader, cherry pick, counter-screen for LGR2 antagonist project, dose response (AID 743444).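 Further: transfected HEK 293 cells stimulated with alpha-MSH peptide; potency of inhibitors of the alpha-MSH evoked signal.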 The format is functional.
Assay [17] is described as follows: toxicity to human hepatoma HepG2 cells – cell-based, cherry-picked samples, cytotoxicity control, dose response (AID 1159577). It is filed as functional.
A short description of assay [18]: P. falciparum Dd2 growth inhibitors, dose response, SYBR Green, cherry-picked samples (AID 1159567). It is filed as functional, cell-based.

Usually IC50 stands for the concentration that inhibits the measured activity by half. Broadly, the EC50 is the concentration at which the effect is half-maximal. Broadly, the AC50 is the midpoint of the concentration-response curve, whichever way the signal moves.

Calls of active or inactive are those of the source. Some results are limits rather than exact numbers.

Mu-type opioid receptor, sequence (P35372 whole entry): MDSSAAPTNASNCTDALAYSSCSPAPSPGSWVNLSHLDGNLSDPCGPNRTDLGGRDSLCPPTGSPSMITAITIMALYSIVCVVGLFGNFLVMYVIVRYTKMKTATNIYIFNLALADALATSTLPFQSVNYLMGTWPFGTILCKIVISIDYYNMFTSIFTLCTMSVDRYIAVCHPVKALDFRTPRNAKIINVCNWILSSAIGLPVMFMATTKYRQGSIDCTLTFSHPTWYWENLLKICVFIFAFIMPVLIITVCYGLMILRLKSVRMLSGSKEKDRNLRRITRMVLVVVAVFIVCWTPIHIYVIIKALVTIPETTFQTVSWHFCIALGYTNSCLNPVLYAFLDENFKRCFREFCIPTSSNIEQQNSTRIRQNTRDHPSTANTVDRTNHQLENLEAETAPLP
5-hydroxytryptamine receptor 2A, sequence (P35363 whole entry, the tested form may be a part): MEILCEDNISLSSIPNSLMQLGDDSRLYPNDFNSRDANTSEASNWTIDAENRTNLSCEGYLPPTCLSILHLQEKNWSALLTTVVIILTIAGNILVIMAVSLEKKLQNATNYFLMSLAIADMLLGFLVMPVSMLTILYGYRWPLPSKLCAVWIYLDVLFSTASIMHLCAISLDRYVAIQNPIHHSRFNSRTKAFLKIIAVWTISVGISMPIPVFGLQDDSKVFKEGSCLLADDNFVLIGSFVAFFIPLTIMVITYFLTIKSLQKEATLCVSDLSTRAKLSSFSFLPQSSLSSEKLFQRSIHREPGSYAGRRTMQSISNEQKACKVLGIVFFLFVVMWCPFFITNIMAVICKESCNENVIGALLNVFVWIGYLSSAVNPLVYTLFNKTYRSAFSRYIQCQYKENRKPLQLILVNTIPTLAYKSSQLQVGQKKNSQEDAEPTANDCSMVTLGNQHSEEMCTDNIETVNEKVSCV
Nonstructural protein 1, sequence (Q194T2 whole entry): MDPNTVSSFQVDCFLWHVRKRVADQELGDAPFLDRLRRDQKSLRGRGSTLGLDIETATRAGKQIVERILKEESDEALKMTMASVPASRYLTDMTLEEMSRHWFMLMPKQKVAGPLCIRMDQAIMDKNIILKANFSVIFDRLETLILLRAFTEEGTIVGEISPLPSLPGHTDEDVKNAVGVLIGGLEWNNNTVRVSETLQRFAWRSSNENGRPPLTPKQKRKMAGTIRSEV

In the case of `COc1cc(-c2noc(C)c2/C=C/c2cccc([N+](=O)[O-])c2)cc(OC)c1OC`, the IC50 in [1] was 68.5 µM (inactive).
Regarding `CCOC(=O)[N-]c1cn(N2CCOCC2)n[o+]1` [MOLSIDOMINE], in assay [2], the half-inhibitory concentration (IC50) was 24.7 µM (active).
Consider `O=C(c1ccco1)N1CCN(Cc2ccccc2F)CC1`, for which the EC50 is 92.5 µM (inactive) in assay [3] and 7.48 µM (active) in [4].
Turning to `Cc1ccccc1CSCC(=O)NC(=O)NCc1ccco1`, the 50% inhibitory concentration (IC50) in assay [2] was 9.27 µM (active); in assay [5], 10.4 µM (active).
For `O=C(Nc1nc(-c2ccccn2)cs1)c1ccc(F)c(S(=O)(=O)N2CCOCC2)c1`, the concentration at half-maximal activity (AC50) in assay [6] was 5.7 µM (active); in assay [8], 0.711 µM (active); in assay [9] it was > 70 µM (inactive); in [10], 1.59 µM (active); in [11], 1.32 µM (active). Further, the concentration for half-maximal inhibition (IC50) in [7] was 7.88 µM (active).
With `COc1cccc(N2CCN(C(=O)c3cn(Cc4ccccc4)nc3-c3cccnc3)CC2)c1`, the IC50 in [1] is > 80 µM (inactive).
Take `O=C(Nc1ccc(N2CCOCC2)cc1)c1ccc(Cl)c(S(=O)(=O)N2CCCCC2)c1`: the figures for the concentration at half-maximal activity (AC50) in [8], in [9] and in assay [11] were 1.58 µM (active), 1.18 µM (active) and 0.81 µM (active), respectively. Also, the IC50 in [1] is > 80 µM (inactive).
In the case of `Cc1cccc(OCC(O)CN2CCN(c3ccccn3)CC2)c1C` (centres undefined), the EC50 in assay [3] is 92.5 µM (inactive); in assay [12], > 120 µM (not active); in assay [13] it was > 120 µM (not active); in [14], > 120 µM (not active); in assay [4], 25.4 µM (inactive).
With `C=CCn1c(COc2cccc(C)c2)nnc1SCC(=O)NC(=O)NCc1ccco1`, the IC50 in assay [2] was 14.8 µM (active).
As for `Cn1cccc1C(=O)OCC(=O)Nc1ccc2c(c1)OCCO2`, the concentration at half-maximal activity (AC50) in assay [15] was 11.3 µM (active); in assay [16] it was 14.8 µM (active).
On to `COc1ccccc1C#Cc1ccc([C@@H]2[C@@H](CO)N(C(=O)C3CCCC3)[C@H]2C#N)cc1`, for which the values for the AC50 in assay [17] and in [18] were > 39 µM (inactive) and 4.57 µM (active), respectively.
Regarding `COc1ccc(CN2CCN(C(=O)c3ccco3)CC2)cc1`, the EC50 in [3] was 92.5 µM (inactive); in [4] it was 1.53 µM (active).
